Data published in patent EP4796171A2 (Zealand Pharma A/S, priority 2017, dated 2018).
Several values for one entry are separate records, joined by “and”; a condition that tells them apart may be missing. Equal entries are not always repeated.

Assays:
human GLP-2 receptors = biological target: T1, human GLP-2 receptors (Homo sapiens, UniProt O95838, D470N); assay: GLP-2 receptor efficacy assay (cAMP AlphaScreen); type: cell-based
T1 sequence (O95838 1-553 D470N): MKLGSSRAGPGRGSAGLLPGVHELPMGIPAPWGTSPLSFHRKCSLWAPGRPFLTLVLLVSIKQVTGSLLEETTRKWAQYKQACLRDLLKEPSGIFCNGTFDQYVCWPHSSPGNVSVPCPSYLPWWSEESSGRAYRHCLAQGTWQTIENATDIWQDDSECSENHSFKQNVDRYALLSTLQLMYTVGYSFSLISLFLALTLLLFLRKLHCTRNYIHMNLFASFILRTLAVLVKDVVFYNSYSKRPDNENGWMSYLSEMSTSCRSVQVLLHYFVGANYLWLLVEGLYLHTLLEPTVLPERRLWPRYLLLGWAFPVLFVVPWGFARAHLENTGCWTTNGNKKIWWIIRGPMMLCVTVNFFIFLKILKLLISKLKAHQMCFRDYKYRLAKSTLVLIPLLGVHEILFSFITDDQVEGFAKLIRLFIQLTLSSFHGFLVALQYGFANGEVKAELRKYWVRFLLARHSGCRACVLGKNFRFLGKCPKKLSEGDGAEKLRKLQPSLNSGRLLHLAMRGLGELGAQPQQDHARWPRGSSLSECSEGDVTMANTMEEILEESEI
Excerpt: The hGLP2-R was purchased from MRC-geneservice, Babraham, Cambridge as an Image clone: 5363415 (11924-117). For subcloning into a mammalian expression vector, primers for subcloning were obtained from DNA-Technology, Risskov, Denmark. The 5' and 3' primers used for the PCR reaction include terminal restriction sites for cloning and the context of the 5' primer is modified to a Kozak consensus without changing the sequence of the product encoded by the ORF. A standard PCR reaction was run using Image clone 5363415 (11924-117) as a template with the above mentioned primers and Polymerase Herculase II Fusion in a total vol. of 50µl. The generated PCR product was purified using GFX PCR and Gel band purification kit, digested with restriction enzymes and cloned into the mammalian expression vector using Rapid DNA Ligation Kit. Ligation reaction was transformed to XL10 Gold Ultracompetent cells and colonies were picked for DNA production using Endofree Plasmid maxi kit. Subsequent sequence analysis was conducted by MWG Eurofins, Germany.
HEK293 cells were transfected using the Lipofectamine PLUS transfection method. The day before transfection, HEK293 cells were seeded in two T75 flasks at a density of 2 x 10^6 cells / T75 flask in cell culturing medium without antibiotics. On the day of transfection, cells were washed with 1x DPBS and medium was replaced with Optimem to a volume of 5 mL / T75 flask before addition of Lipofectamine-plasmid complexes were added gently and drop wise to the cells in T75 flasks and replaced with growth medium after 3 hours and again to growth medium supplemented with 500µg/mL G418 after 24 hours. After 4 weeks in G418 selection, clones were picked and tested in a functional assay.
The cAMP AlphaScreen® assay from Perkin Elmer was used to quantitate the cAMP response to activation of the GLP2 receptor. […] Table 2: GLP-2R EC50 measurements

[1] = Phase 2 clinical trial, PK profile of ZP1848 and metabolites in SBS patients; type: in vivo, human; details: for Conc.: plasma
Description: A phase 2 clinical trial was conducted to i.a. determine the PK profile of ZP1848 and metabolites in human SBS patients.
The study was designed as a randomized, cross-over and double-blinded with three different doses of ZP1848 (10 mg, 1 mg, 0.1 mg) in 16 SBS patients.
The 18 SBS patients (16 patients completed the study) were randomized evenly and in a double-blinded fashion to each of the six cross-over dose level combinations: 10 mg/1 mg, 10 mg/0.1 mg, 1 mg/10 mg, 1 mg/0.1 mg, 0.1 mg/10 mg, 0.1 mg/1 mg of ZP1848. The patients were injected once daily (QD) subcutaneously with the above doses of ZP1848.
Blood samples for PK analysis were collected on several study visits throughout the study period: the study comprised a 1st baseline balance study (4 days), a 1st treatment period (21 days) including a 1st treatment balance study (last 4 days of 1st treatment period), followed by a wash-out period (at least 4 weeks); and a 2nd baseline balance study (4 days), a 2nd treatment period (21 days) including a 2nd treatment balance study (last 4 days of 2nd treatment period) and a follow-up period (at least 4 weeks).
PK sampling was performed at visit 11 (1st treatment, balance study) and visit 17 (second day of 2nd baseline study - after a wash out period), and again at visit 25 (2nd treatment balance study) and at visit 29 (last day of follow-up period).
At day visit 11 and visit 25 a full PK profile in steady state was investigated. PK samples were taken prior to injection of ZP1848, and at the following time points (+/- 10 minutes) after trial product administration: 1h, 2h, 4h, 6h, 8h, 10h, 12h and 24h. Each PK sample contained 2 mL of blood, resulting in a total of […] blood drawn for PK purposes. The plasma sample was immediately stored at -80°C after sampling.
Plasma samples were analyzed after immunoaffinity extraction followed by liquid chromatography mass spectrometry (LC-MS/MS). For each patient plasma concentrations were used for calculation of the pharmacokinetic parameters using the non-compartmental approach in Excel. Plasma terminal elimination half-life (T½) was determined as In(2)/ke where ke is the magnitude of the slope of the log linear regression of the log concentration versus time profile during the terminal phase.

For “H-HGEGTFSSELATILDALAARDFIAWLIATKITDK-OH [ZP2469]”, the EC50 (human GLP-2 receptors) was 0.052 nM, the in vitro potency (human GLP-2 receptors; in words, relative to ZP1848) was “comparable to ZP1848” and the plasma level ([1]; in words, relative to ZP1848 after administration of ZP1848) was “multiple times higher than that of ZP1848”. For the same substance, the Conc. ([1]; Day 0 (visit 11 or 25, treatment balance study), ZP1848 SC once daily, individual subjects) was 2.22 nM and 0.556 nM and 3.64 nM and 4.75 nM and 4.66 nM and 4.49 nM and 1.04 nM and 14.7 nM and 6.77 nM and 4.34 nM and 4.94 nM, the Conc. ([1]; Day 28-56 (visit 17 or 29, after wash-out/follow-up), individual subjects) was 0.394 nM and 0.0528 nM and 0.0564 nM and 0.288 nM and 0.236 nM and 0.195 nM and 0.133 nM and 0.209 nM and 0.46 nM and 0.116 nM and 0.112 nM and the Half-life ([1]; terminal, from Day 0 and wash-out/follow-up concentrations, individual subjects) was 5.2 days and 7.9 days and 8.7 days (2×) and 11 days (2×) and 7.2 days (2×) and 12 days and 9.5 days and 9.6 days.
